# Experimental data taken from US6673791B2, “Non-nucleoside reverse transcriptase inhibitors” (Boehringer Ingelheim (Canada) Ltd., priority 2001, dated 2004).
# System: K103N/Y181C (HIV-1 double mutant strain)
# Assay: EC50 assay, K103N/Y181C strain
# Assay type: cell-based
# Conditions: Human immunodeficiency virus 1, read-out: EC50 K103N/Y181C (nM), K103N/Y181C double mutant
# Text: (§1) Reverse TranscriptASE (RT) Assays
# (§2) The assays are as described in WO 01/96338A1, the contents of which are hereby incorporated herein. The results are listed in Tables 8 as IC50(nM) and EC50(nM).
row,Compound,EC50 [nM]
1,CCN1c2ncc(CCOc3ccc(CC(C)C(=O)O)c4ccccc34)cc2C(=O)N(C)c2cccnc21 (stereo not drawn) [Entry 1042],< 100
2,CCN1c2ncc(CCOc3ccc(/C=C(\C)C(=O)O)c4ccccc34)cc2C(=O)Nc2c(C)cc(Cl)nc21 [Entry 1040],100 to 1000
3,CCN1c2ncc(CCOc3ccc(CCC(=O)O)c4c3CCCC4)cc2C(=O)N(C)c2ccc(Cl)nc21 [Entry 5010],< 100
4,CCN1c2ncc(CCOc3ccc(/C(C)=C/C(=O)O)c4ccccc34)cc2C(=O)N(C)c2cccnc21 [Entry 1048],< 100
5,CCN1c2ncc(CCOc3ccc(C(=O)O)c4ccccc34)cc2C(=O)N(C)c2ccc(F)nc21 [Entry 1006],< 100
6,CCN1c2ncc(CCOc3ccc(/C=C/C(=O)O)c4ccccc34)cc2C(=O)N(C)c2ccc(C)nc21 [Entry 1033],< 100
7,CCN1c2ncc(CCOc3ccc(/C=C(\C)C(=O)O)c4ccccc34)cc2C(=O)N(C)c2ccc(C)nc21 [Entry 1038],< 100

# Molecular target: T1, Y188L mutant RT (HIV-1 RT) (Human immunodeficiency virus type 1 group M subtype B, UniProt P03366, Y787L)
# T1 construct: mutations that occur in the reverse transcriptase segment of the pol gene
# Assay: biochemical
# Conditions: IC50 Y188L (nM)
# Text: (§3) Based upon testing of these compounds, as described below, it is known that they inhibit the RNA-dependent DNA polymerase activity of HIV-1 RT. […] Utilising the Reverse Transcriptase (RT) Assay described below, compounds can be tested for their ability to inhibit the RNA-dependent DNA polymerase activity of HIV-1 RT. Certain specific compounds described in the Examples which appear below, were so tested. The results of this testing appear in Table 4 as IC50 (nM) and Table 5 as EC50 (nM).
# as §1, §2
row,Compound,IC50 [nM]
1,CCN1c2ncc(CCOc3ccc(CC(C)C(=O)O)c4ccccc34)cc2C(=O)N(C)c2cccnc21 (stereo not drawn) [Entry 1042],> 1000
2,CCN1c2ncc(CCOc3ccc(/C=C(\C)C(=O)O)c4ccccc34)cc2C(=O)Nc2c(C)cc(Cl)nc21 [Entry 1040],> 1000
3,CCN1c2ncc(CCOc3ccc(CCC(=O)O)c4c3CCCC4)cc2C(=O)N(C)c2ccc(Cl)nc21 [Entry 5010],100 to 1000
4,CCN1c2ncc(CCOc3ccc(/C(C)=C/C(=O)O)c4ccccc34)cc2C(=O)N(C)c2cccnc21 [Entry 1048],> 1000
5,CCN1c2ncc(CCOc3ccc(C(=O)O)c4ccccc34)cc2C(=O)N(C)c2ccc(F)nc21 [Entry 1006],> 1000
6,CCN1c2ncc(CCOc3ccc(/C=C/C(=O)O)c4ccccc34)cc2C(=O)N(C)c2ccc(C)nc21 [Entry 1033],100 to 1000
7,CCN1c2ncc(CCOc3ccc(/C=C(\C)C(=O)O)c4ccccc34)cc2C(=O)N(C)c2ccc(C)nc21 [Entry 1038],> 1000

# Molecular target: T2, K103N/Y181C double mutant RT (HIV-1 RT) (Human immunodeficiency virus type 1 group M subtype B, UniProt P03366, K702N/Y780C)
# T2 construct: mutations that occur in the reverse transcriptase segment of the pol gene
# Assay: biochemical
# Conditions: not given
# Text: as §3, §1, §2
row,Compound,IC50 [nM]
1,CCN1c2ncc(CCOc3ccc(CC(C)C(=O)O)c4ccccc34)cc2C(=O)N(C)c2cccnc21 (stereo not drawn) [Entry 1042],100 to 1000
2,CCN1c2ncc(CCOc3ccc(/C=C(\C)C(=O)O)c4ccccc34)cc2C(=O)Nc2c(C)cc(Cl)nc21 [Entry 1040],100 to 1000
3,CCN1c2ncc(CCOc3ccc(CCC(=O)O)c4c3CCCC4)cc2C(=O)N(C)c2ccc(Cl)nc21 [Entry 5010],100 to 1000
4,CCN1c2ncc(CCOc3ccc(/C(C)=C/C(=O)O)c4ccccc34)cc2C(=O)N(C)c2cccnc21 [Entry 1048],100 to 1000
5,CCN1c2ncc(CCOc3ccc(C(=O)O)c4ccccc34)cc2C(=O)N(C)c2ccc(F)nc21 [Entry 1006],100 to 1000
6,CCN1c2ncc(CCOc3ccc(/C=C/C(=O)O)c4ccccc34)cc2C(=O)N(C)c2ccc(C)nc21 [Entry 1033],100 to 1000
7,CCN1c2ncc(CCOc3ccc(/C=C(\C)C(=O)O)c4ccccc34)cc2C(=O)N(C)c2ccc(C)nc21 [Entry 1038],100 to 1000

# Molecular target: T3, V106A mutant RT (HIV-1 RT) (Human immunodeficiency virus type 1 group M subtype B, UniProt P03366, V705A)
# T3 construct: mutations that occur in the reverse transcriptase segment of the pol gene
# Assay: biochemical
# Conditions: IC50 V106A (nM)
# Text: as §3, §1, §2
row,Compound,IC50 [nM]
1,CCN1c2ncc(CCOc3ccc(CC(C)C(=O)O)c4ccccc34)cc2C(=O)N(C)c2cccnc21 (stereo not drawn) [Entry 1042],> 1000
2,CCN1c2ncc(CCOc3ccc(/C=C(\C)C(=O)O)c4ccccc34)cc2C(=O)Nc2c(C)cc(Cl)nc21 [Entry 1040],100 to 1000
3,CCN1c2ncc(CCOc3ccc(CCC(=O)O)c4c3CCCC4)cc2C(=O)N(C)c2ccc(Cl)nc21 [Entry 5010],> 1000
4,CCN1c2ncc(CCOc3ccc(/C(C)=C/C(=O)O)c4ccccc34)cc2C(=O)N(C)c2cccnc21 [Entry 1048],> 1000
5,CCN1c2ncc(CCOc3ccc(C(=O)O)c4ccccc34)cc2C(=O)N(C)c2ccc(F)nc21 [Entry 1006],> 1000
6,CCN1c2ncc(CCOc3ccc(/C=C/C(=O)O)c4ccccc34)cc2C(=O)N(C)c2ccc(C)nc21 [Entry 1033],100 to 1000
7,CCN1c2ncc(CCOc3ccc(/C=C(\C)C(=O)O)c4ccccc34)cc2C(=O)N(C)c2ccc(C)nc21 [Entry 1038],> 1000

# Molecular target: T4, WT RT (HIV-1 RT) (Human immunodeficiency virus type 1 group M subtype B, UniProt P03366)
# T4 construct: mutations that occur in the reverse transcriptase segment of the pol gene
# Assay: biochemical
# Conditions: not given
# Text: as §3, §1, §2
row,Compound,IC50 [nM]
1,CCN1c2ncc(CCOc3ccc(CC(C)C(=O)O)c4ccccc34)cc2C(=O)N(C)c2cccnc21 (stereo not drawn) [Entry 1042],< 100
2,CCN1c2ncc(CCOc3ccc(/C=C(\C)C(=O)O)c4ccccc34)cc2C(=O)Nc2c(C)cc(Cl)nc21 [Entry 1040],< 100
3,CCN1c2ncc(CCOc3ccc(CCC(=O)O)c4c3CCCC4)cc2C(=O)N(C)c2ccc(Cl)nc21 [Entry 5010],< 100
4,CCN1c2ncc(CCOc3ccc(/C(C)=C/C(=O)O)c4ccccc34)cc2C(=O)N(C)c2cccnc21 [Entry 1048],< 100
5,CCN1c2ncc(CCOc3ccc(C(=O)O)c4ccccc34)cc2C(=O)N(C)c2ccc(F)nc21 [Entry 1006],< 100
6,CCN1c2ncc(CCOc3ccc(/C=C/C(=O)O)c4ccccc34)cc2C(=O)N(C)c2ccc(C)nc21 [Entry 1033],< 100
7,CCN1c2ncc(CCOc3ccc(/C=C(\C)C(=O)O)c4ccccc34)cc2C(=O)N(C)c2ccc(C)nc21 [Entry 1038],< 100

# System: WT RT (HIV-1 wild type strain)
# Assay: EC50 assay, WT RT strain
# Assay type: cell-based
# Conditions: Human immunodeficiency virus 1, read-out: EC50 WT RT (nM)
# Text: as §1, §2
row,Compound,EC50 [nM]
1,CCN1c2ncc(CCOc3ccc(CC(C)C(=O)O)c4ccccc34)cc2C(=O)N(C)c2cccnc21 (stereo not drawn) [Entry 1042],< 100
2,CCN1c2ncc(CCOc3ccc(/C=C(\C)C(=O)O)c4ccccc34)cc2C(=O)Nc2c(C)cc(Cl)nc21 [Entry 1040],< 100
3,CCN1c2ncc(CCOc3ccc(CCC(=O)O)c4c3CCCC4)cc2C(=O)N(C)c2ccc(Cl)nc21 [Entry 5010],< 100
4,CCN1c2ncc(CCOc3ccc(/C(C)=C/C(=O)O)c4ccccc34)cc2C(=O)N(C)c2cccnc21 [Entry 1048],< 100
5,CCN1c2ncc(CCOc3ccc(C(=O)O)c4ccccc34)cc2C(=O)N(C)c2ccc(F)nc21 [Entry 1006],< 100
6,CCN1c2ncc(CCOc3ccc(/C=C/C(=O)O)c4ccccc34)cc2C(=O)N(C)c2ccc(C)nc21 [Entry 1033],< 100
7,CCN1c2ncc(CCOc3ccc(/C=C(\C)C(=O)O)c4ccccc34)cc2C(=O)N(C)c2ccc(C)nc21 [Entry 1038],< 100
